Source: patent US20140004243A1, “SALTY TASTE ENHANCER” (AJINOMOTO CO., INC., priority 2011, published 2014)

Test system: human
Assay: Sensory evaluation of salty taste enhancing activity of capsazepine in human
Format: in vivo
Conditions: for strength of salty taste middle and after taste: after 2 seconds; for strength of salty taste middle and after taste / strength of salty taste initial taste: relative to control; for strength of salty taste initial taste: first 2 seconds
Procedure: The presence or absence of a salty taste enhancing activity in human was examined by a quantitative sensory evaluation test for capsazepine having an ENaC activation to action.
The quantitative sensory evaluation test was performed as follows. Distilled water containing sodium chloride (0.8 g/dl) was mixed with capsazepine as a sample at 0.0001 to 0.001 g/dl, and the level of a salty taste enhancing activity was measured. Distilled water containing 0.8 g/dl of sodium chloride was used as a control, and distilled water containing 0.9 g/dl or 1.0 g/dl of sodium chloride was used as a comparison target. Using a linear measurement method, a straight line showing 1.0-fold (0.8 g/dl), 1.13-fold (0.9 g/dl), 1.25-fold (1.0 g/dl) positions of sodium chloride concentration was drawn and the position showing the strength of the corresponding salty taste was put down thereon. As for the sensory evaluation, an average of the positions put down by the panelists was determined, and an increase in the level of salty taste relative to the level of salty taste in the control was indicated as a salty taste enhancing rate (fold). […] The “initial taste” means the evaluation of the strength of the salty taste for 2 seconds after placing in the mouth, and the “middle and after taste” means a combination of middle taste and after taste, which is the evaluation of the strength of the salty taste after 2 seconds from placing in the mouth.

[1] = sample 0.0001 g/dl in 0.8 g/dl sodium chloride
[2] = sample 0.0005 g/dl in 0.8 g/dl sodium chloride
[3] = sample 0.001 g/dl in 0.8 g/dl sodium chloride

## Oc1cc2c(cc1O)CN(C(=S)NCCc1ccc(Cl)cc1)CCC2 [capsazepine]
[1]
  strength of salty taste middle and after taste: 1.05 fold
  strength of salty taste initial taste: 1.04 fold
[2]
  strength of salty taste middle and after taste: 1.08 fold
  strength of salty taste initial taste: 1.11 fold
[3]
  strength of salty taste middle and after taste: 1.11 fold
  strength of salty taste initial taste: 1.11 fold
Summary in words of Table 3
  salty taste enhancing activity in human: has a salty taste enhancing activity in human
